From patent US7981920B2, “Addition salts of angiotensin-converting enzyme inhibitors with no donor acids, a process for their preparation and pharmaceutical compositions containing them” (Les Laboratoires Servier, priority 2007, dated 2011) come the findings set out here.

For assay [1], the system named is Aorta rings without endothelium. The assay can be described thus: NO donor activity in vitro: relaxation of noradrenaline-contracted aorta rings. The class given is cell-based. The following applies: stable contraction induced by noradrenaline (0.1-0.3 μM), read-out: IC50 (dose that inhibits the maximum effect by 50%), relaxing effect. The procedure: Aorta rings without endothelium are used. After a first contraction induced by 60 mM KCl to characterise the sensitivity of the ring, and washing, a stable contraction is induced by noradrenaline (0.1-0.3 μM) in the presence or absence of a guanylate cyclase inhibitor, ODQ (10 μM). A cumulative concentration series is applied and the activity of the product under test is calculated by an IC50 (dose that inhibits the maximum effect by 50%).

In assay [2] the target is T1, Angiotensin 1-Converting Enzyme (Rattus norvegicus, UniProt P47820).
T1 construct: from tissue; host or cells: whole living rat (in vivo; endogenous enzyme)
T1 sequence (P47820 36-1313): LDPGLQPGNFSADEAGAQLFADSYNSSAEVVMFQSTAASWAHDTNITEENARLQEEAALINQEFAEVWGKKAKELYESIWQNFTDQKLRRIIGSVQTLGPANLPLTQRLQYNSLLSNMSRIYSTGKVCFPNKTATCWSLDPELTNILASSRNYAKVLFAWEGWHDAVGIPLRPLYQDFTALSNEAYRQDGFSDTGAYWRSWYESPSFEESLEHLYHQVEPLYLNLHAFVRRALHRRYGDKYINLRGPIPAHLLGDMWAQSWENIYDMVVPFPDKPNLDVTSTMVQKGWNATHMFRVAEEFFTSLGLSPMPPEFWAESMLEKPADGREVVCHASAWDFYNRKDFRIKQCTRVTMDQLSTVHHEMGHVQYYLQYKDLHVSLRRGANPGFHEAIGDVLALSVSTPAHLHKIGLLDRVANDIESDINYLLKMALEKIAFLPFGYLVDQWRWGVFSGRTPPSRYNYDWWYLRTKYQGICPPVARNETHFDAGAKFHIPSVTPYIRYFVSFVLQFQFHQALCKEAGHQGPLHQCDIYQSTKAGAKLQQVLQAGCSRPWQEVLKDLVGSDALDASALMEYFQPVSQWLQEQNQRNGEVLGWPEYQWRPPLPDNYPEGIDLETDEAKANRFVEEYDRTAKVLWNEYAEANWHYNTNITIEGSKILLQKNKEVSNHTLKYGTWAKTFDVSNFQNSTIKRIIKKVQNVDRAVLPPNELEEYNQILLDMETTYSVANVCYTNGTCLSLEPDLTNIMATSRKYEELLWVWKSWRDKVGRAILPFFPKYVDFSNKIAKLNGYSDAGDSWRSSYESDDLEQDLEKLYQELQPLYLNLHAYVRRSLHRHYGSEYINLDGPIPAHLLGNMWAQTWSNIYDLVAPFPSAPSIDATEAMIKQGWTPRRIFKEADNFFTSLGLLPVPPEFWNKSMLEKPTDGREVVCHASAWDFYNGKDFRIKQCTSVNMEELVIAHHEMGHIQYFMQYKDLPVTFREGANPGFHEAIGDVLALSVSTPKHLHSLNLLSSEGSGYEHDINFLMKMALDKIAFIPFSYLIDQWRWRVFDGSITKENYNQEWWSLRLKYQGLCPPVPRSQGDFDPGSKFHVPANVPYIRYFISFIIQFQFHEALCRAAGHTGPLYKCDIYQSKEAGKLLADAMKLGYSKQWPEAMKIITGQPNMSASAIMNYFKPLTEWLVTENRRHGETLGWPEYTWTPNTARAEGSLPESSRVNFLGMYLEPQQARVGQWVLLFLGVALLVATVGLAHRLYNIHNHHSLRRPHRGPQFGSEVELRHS
The assay can be described thus: Activity inhibiting angiotensin 1-converting enzyme in vivo: hypertensive response to angiotensin I in anaesthetised rats. The settings on record: dose of 0.1 mg/kg, given 60 minutes prior to anaesthesia, angiotensin I i.v. 1.5 μg/kg. The procedure:
Rats are anaesthetised with pentobarbital and placed under artificial respiration, and the average arterial pressure is measured by a catheter that has been placed in the femoral artery and is connected to a pressure sensor. The vagus nerves are divided into sections and mecamilamine (sympathetic ganglion blocker) is injected i.v. at 1.5 mg/kg. After stabilisation, angiotensin I is injected i.v. at 1.5 μg/kg.
The maximum hypertensive response to angiotensin I is measured in rats that, 60 minutes prior to anaesthesia, have received by the oral route either Senegal gum alone (control group), or the compound under test in Senegal gum. The inhibitory effect is determined as a percentage from the response to angiotensin I compared with the control group.

For orientation: IC50 means the concentration at which inhibition is half-maximal. In the case of “(2S,3aS,7aS)-1-[(2S)-2-{[(1S)-1-(Ethoxycarbonyl)-butyl]-amino}-propionyl]-octahydro-1H-indole-2-carboxylic acid-{[(3-{[5-oxido-4-(phenylsulphonyl)-1,2,5-oxadiazol-3-yl]-oxy}-propionyl)-amino]-methyl}-phosphonic acid (1:1) [Example 7]”, in assay [1], the IC50 worked out at 47 nM. In addition, in assay [2], the “angiotensin I inhibition (inhibition of maximum hypertensive response to angiotensin I compared with control group)” value turned out to be 88%.

Consider “(2S)-2-[(3-{[5-Oxido-4-(phenylsulphonyl)-1,2,5-oxadiazol-3-yl]-oxy}-propionyl)-amino]-succinic Acid-(2S,3aS,7aS)-1-[(2S)-2-{[(1S)-1-(ethoxycarbonyl)-butyl]-amino}-propionyl]-octahydro-1H-indole-2-carboxylic Acid (1:1) [Example 1]”, for which the IC50 in assay [1] is 48 nM. Also, the “angiotensin I inhibition (inhibition of maximum hypertensive response to angiotensin I compared with control group)” value in assay [2] was determined as 85%.
